# Source: PMC13703928, “Substrate‐Dependent Crosslinking by the Cytochrome P450 From Aminopyruvatide Biosynthesis” (Angewandte Chemie (International Ed. in English), 2026)
# Several values for one entry are separate records, joined by “and”; a condition that tells them apart may be missing. Equal entries are not always repeated. Entries after “also recorded” stand apart in the source; their conditions may differ.
# Tests used:
# cathepsin B = target: T1, cathepsin B (Homo sapiens, UniProt P07858); assay: biochemical; conditions: 192.4 pM enzyme, 20 µM Z-RR-4MBNA; for Inhibition of cathepsin B at 25 µM (in words): pH 6.0, 30 °C
# T1 construct: purchased Athens research and technology 16-12-030102
# cathepsin L = target: T2, cathepsin L (Homo sapiens, UniProt P07711); assay: biochemical; conditions: 200 pM enzyme, 10 µM Z-FR-AFC; for Inhibition of cathepsin L at 25 µM (in words): pH 5.5, 30 °C
# T2 construct: purchased Athens research and technology 16-12-030112
# papain = target: T3, papain (Carica papaya, UniProt P00784); assay: biochemical; conditions: 200 pM enzyme, 10 µM Z-FR-AFC; for IC50: 50 mM sodium phosphate pH 7, 1 mM EDTA, 2 mM DTT, 30 °C, 15 min preincubation at room temperature, fluorescence, meaning of ± and n not given, read-out: IC50, inhibition of papain; for Inhibition of papain at 25 µM (in words): pH 7, 30 °C
# T3 construct: purchased Sigma P4762-25MG
# T3 sequence (P00784 134-345): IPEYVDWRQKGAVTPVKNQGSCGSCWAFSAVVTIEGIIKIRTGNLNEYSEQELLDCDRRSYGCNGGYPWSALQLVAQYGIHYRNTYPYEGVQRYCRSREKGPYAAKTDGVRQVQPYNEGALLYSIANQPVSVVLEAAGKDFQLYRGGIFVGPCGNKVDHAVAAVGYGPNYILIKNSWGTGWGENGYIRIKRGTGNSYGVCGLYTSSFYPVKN
# trypsin = format: biochemical; conditions: 500 pM enzyme, 10 µM Boc-QAR-AMC, Tris HCl pH 8, 30 °C
# chymotrypsin = format: biochemical; conditions: 1 nM enzyme, 10 µM Suc-AAPF-AMC, Tris HCl pH 8, 30 °C
# [1] = tested on: main protease from SARS CoV‐2 (M^pro); format: biochemical
# [2] = tested on: proteases (trypsin, chymotrypsin, papain, cathepsin B, cathepsin L, ACE, M^pro); format: biochemical
# ApyO [3] = format: biochemical, Burkholderia thailandensis E264; conditions: pH 7.5
# ApyO [4] = format: biochemical, Burkholderia thailandensis E264; conditions: pH 7.5; remark: listed apart in the source
# [5] = target: T4, angiotensin I‐converting enzyme (ACE) (Oryctolagus cuniculus, UniProt P12822); format: biochemical; conditions: 0.4 mU/mL enzyme, 10 µM Abz-FRK(Dnp)-P-OH, pH 7.5, 37 °C
# T4 construct: purchased Sigma A6778
# T4 sequence (P12822 34-1310): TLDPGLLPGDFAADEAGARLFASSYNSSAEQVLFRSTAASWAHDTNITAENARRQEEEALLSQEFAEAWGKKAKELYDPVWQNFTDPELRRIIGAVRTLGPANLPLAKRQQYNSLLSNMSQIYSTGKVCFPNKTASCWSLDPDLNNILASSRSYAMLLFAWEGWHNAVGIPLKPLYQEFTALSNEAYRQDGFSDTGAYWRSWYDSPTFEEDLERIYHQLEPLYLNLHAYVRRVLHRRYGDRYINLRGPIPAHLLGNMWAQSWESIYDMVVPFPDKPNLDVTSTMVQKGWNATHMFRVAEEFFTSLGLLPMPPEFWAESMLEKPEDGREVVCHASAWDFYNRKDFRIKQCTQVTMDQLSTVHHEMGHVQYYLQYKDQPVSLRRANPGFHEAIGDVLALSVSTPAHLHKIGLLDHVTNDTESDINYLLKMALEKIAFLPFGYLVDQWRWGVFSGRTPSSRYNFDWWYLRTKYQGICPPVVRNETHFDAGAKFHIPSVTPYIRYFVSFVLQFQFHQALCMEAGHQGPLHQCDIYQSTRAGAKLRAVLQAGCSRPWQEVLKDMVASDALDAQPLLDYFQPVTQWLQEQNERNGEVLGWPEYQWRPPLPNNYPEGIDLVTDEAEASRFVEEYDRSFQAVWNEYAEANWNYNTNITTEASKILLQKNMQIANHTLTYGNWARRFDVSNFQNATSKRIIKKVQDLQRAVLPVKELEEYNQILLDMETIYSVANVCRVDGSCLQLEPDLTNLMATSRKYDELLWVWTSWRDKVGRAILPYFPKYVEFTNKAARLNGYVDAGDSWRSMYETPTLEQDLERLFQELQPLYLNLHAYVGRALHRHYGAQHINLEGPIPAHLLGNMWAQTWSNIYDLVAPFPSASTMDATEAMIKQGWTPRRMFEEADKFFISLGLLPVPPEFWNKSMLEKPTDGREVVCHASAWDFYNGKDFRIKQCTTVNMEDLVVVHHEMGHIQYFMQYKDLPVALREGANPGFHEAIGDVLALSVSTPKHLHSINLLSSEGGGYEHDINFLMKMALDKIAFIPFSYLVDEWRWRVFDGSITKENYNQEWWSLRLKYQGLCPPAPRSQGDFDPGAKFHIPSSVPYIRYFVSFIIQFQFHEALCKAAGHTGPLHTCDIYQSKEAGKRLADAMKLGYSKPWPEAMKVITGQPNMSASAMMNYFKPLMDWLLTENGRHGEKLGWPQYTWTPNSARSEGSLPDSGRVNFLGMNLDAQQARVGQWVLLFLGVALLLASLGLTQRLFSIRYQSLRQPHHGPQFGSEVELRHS
# T2 sequence (P07711 114-333): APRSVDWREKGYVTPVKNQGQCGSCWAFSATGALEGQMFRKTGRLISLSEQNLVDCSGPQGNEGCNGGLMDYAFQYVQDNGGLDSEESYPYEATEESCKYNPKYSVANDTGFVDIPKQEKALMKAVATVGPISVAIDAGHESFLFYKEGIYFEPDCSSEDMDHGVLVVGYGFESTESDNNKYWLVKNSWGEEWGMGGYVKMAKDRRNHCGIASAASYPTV
Compound,Inhibition of cathepsin B at 25 µM (in words) (cathepsin B),Inhibition of cathepsin L at 25 µM (in words) (cathepsin L),Inhibition of papain at 25 µM (in words) (papain),Inhibition of trypsin at 25 µM (in words) (trypsin),Inhibition of chymotrypsin at 25 µM (in words) (chymotrypsin),Inhibition of SARS CoV-2 Mpro at 25 µM (in words) [1],also measured
CC(C)C[C@@H]1NC(=O)[C@@H](NC(=O)CN)Cc2ccc(O)c(c2)-c2cc(ccc2O)C[C@@H](C(=O)N[C@@H](C)C(=O)C(=O)O)NC1=O [desmethylaminopyruvatide A],–,–,–,–,–,–,"IC50 (cathepsin B; 100 mM sodium phosphate pH 6.0, 1.33 mM EDTA, 2 mM DTT, 30 °C, 15 min preincubation at room temperature, fluorescence, readings every 60 s for 1 h, meaning of ± and n not given, read-out: IC50, inhibition of cathepsin B): 0.5 nM; IC50 (cathepsin L; 50 mM sodium acetate pH 5.5, 2.5 mM EDTA, 2.5 mM DTT, 30 °C, 15 min preincubation at room temperature, fluorescence, meaning of ± and n not given, read-out: IC50, inhibition of cathepsin L): 0.6 nM; IC50 (papain): 0.3 nM; Inhibition of trypsin (in words) (trypsin; test concentration not given): No inhibition; Inhibition of chymotrypsin (in words) (chymotrypsin; test concentration not given): No inhibition; Inhibition of SARS CoV-2 Mpro (in words) [1]: No inhibition; Protease inhibition, potency in words ([2]; Cys proteases / select proteases): nanomolar activity against Cys‐proteases; also recorded: subnanomolar inhibitory activity against clinically relevant Cys proteases; Specificity (in words) ([2]; cathepsin L, cathepsin B, papain versus trypsin, chymotrypsin, Mpro): specificity towards the papain family of Cys proteases"
GYYYD (sidechain bridge or staple) [L7Y isomer-1],No inhibition was observed,No inhibition was observed,No inhibition was observed,No inhibition was observed,No inhibition was observed,No inhibition was observed,–
"NCC(=O)N[C@H]1Cc2ccc(O)c(c2)Oc2ccc(cc2)C[C@@H](C(=O)N[C@@H](CC(=O)O)C(=O)O)NC(=O)[C@H](Cc2ccc(O)cc2)NC1=O (single isomer, unassigned) [L7Y isomer-2]",–,–,–,–,–,–,IC50 (papain): 11700 nM
fMGEGYLYD,–,–,–,–,–,–,Modification by ApyO (in words) (ApyO [3]): did not result in product formation
N‐terminally acetylated‐GRMGEGYLYD [Ac-ApyAct],–,–,–,–,–,–,Km (ApyO [4]): 80 ± 7 µM; kcat (ApyO [4]): 1.63 and 1.63 ± 0.04
GWLYD (sidechain bridge or staple) [Y6W],No inhibition was observed,No inhibition was observed,No inhibition was observed,No inhibition was observed,No inhibition was observed,No inhibition was observed,–
GYWYD (sidechain bridge or staple) [L7W isomer-2],No inhibition was observed,No inhibition was observed,No inhibition was observed,No inhibition was observed,No inhibition was observed,No inhibition was observed,Inhibition of ACE at 25 µM (in words) [5]: weak inhibition; Inhibition of ACE at 25 µM ([5]; IC50 not determined): ~40%
fMRMGEGYLYD [ApyAct],–,–,–,–,–,–,Conversion of substrate by ApyO (ApyO [3]): ~70%
